Results on two molecules are retold here after the NIST ThermoML archive (doi:10.1016/j.tca.2018.05.010).

Data set [1] in a line: Molar enthalpy of transition or fusion. To be noted: Crystal; DSC.
For data set [2] the following is noted: Crystal; for vapor or sublimation pressure: Transpiration method; for Normal melting temperature: DTA.

Molecules are shown by their SMILES. Where “and” joins values, the source holds several entries; their conditions need not be identical. Equal values may be shown once. Numbers after ± are expanded uncertainties.

Turning to `O=C(O)[C@@H](O)c1ccccc1` [(S)-2-hydroxy-2-phenylacetic acid], the “Molar enthalpy of transition or fusion” value in data set [1] was 5.93 ± 0.143 kcal/mol. Moreover, the “vapor or sublimation pressure” value is 0.0016 ± 0.00062 kPa in data set [2] (362.7 K); 0.00264 ± 0.001 kPa in data set [2] (367.8 K); 0.00431 ± 0.0016 kPa in data set [2] (373 K); 0.00647 ± 0.0026 kPa in data set [2] (378 K); 0.0109 ± 0.0042 kPa and 0.0107 ± 0.0041 kPa in data set [2] (383 K); 0.0164 ± 0.0061 kPa in data set [2] (388 K). Also, the “vapor or sublimation pressure” value in data set [2] (392.7 K) amounted to 0.0241 ± 0.0088 kPa. Moreover, in data set [2], the Normal melting temperature came out at 134.6 ± 1.1 °C.
For `O=C(O)C(O)c1ccccc1` (stereo not drawn) [mandelic acid], the “Molar enthalpy of transition or fusion” value in data set [1] is 6 ± 0.167 kcal/mol. For the same molecule, the “vapor or sublimation pressure” value is 0.00068 ± 0.0003 kPa in data set [2] (352.9 K); 0.00116 ± 0.00048 kPa in data set [2] (358.2 K); 0.00193 ± 0.00074 kPa in data set [2] (362.9 K); 0.00284 ± 0.0011 kPa in data set [2] (367.8 K); 0.0051 ± 0.0022 kPa in data set [2] (373.2 K); 0.0076 ± 0.003 kPa and 0.00771 ± 0.0031 kPa in data set [2] (378 K). The “vapor or sublimation pressure” value in data set [2] (387.9 K) was determined as 0.0179 ± 0.0067 kPa. For the same molecule, the Normal melting temperature in data set [2] was found to be 121.2 ± 1.1 °C.

As a reminder, the vapor or sublimation pressure is the equilibrium pressure above the liquid or solid.
